Assay results reported in US20230312576A1, “4-(7H-PYRROLO[2,3-D]PYRIMIDIN-4-YL)-3,6-DIHYDROPYRIDINE-1-(2H)-CARBOXAMIDE DERIVATIVES AS LIMK AND/OR ROCK KINASES INHIBITORS FOR USE IN THE TREATMENT OF CANCER” (CENTRE NATIONAL DE LA RECHERCHE SCIENTIFIQUE, priority 2020, published 2023).
Like-named read-outs stand apart in the source and are kept apart here.

Experiments:
LIMK2 = LIMK2 (Homo sapiens (Human), UniProt P53671); assay: Lanthascreen Eu binding assay (TR-FRET), inhibition of LIMK2; details: Lanthascreen Eu binding assay
Chain of LIMK2 (P53671 whole entry): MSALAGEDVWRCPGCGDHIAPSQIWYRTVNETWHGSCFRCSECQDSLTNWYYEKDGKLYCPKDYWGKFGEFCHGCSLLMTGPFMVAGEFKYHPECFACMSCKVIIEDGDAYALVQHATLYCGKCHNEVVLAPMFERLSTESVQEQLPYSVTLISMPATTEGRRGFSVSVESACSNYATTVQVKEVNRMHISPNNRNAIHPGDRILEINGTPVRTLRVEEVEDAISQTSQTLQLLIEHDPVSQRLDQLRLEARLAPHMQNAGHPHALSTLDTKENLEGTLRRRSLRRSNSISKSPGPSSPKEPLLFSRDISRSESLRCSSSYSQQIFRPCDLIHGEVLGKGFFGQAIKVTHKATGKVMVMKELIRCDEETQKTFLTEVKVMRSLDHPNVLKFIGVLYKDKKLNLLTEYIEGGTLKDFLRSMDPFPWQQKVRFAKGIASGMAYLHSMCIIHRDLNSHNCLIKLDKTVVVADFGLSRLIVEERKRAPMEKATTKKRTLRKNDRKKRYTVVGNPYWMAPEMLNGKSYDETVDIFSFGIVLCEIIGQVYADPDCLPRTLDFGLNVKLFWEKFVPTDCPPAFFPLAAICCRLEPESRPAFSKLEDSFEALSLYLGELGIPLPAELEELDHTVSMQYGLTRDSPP

[1] = test system: cofilin phosphorylation, MPNST88-14 cells; assay: Cofilin phosphorylation by Western Blot in MPNST88-14 cells; assay type: cell-based; details: read-out: % inhibition Cofilin phosphorylation MPNST88-14 cells treated 2 h with 25 uM of inhibitor, MPNST88-14 cells, 25 uM
[2] = test system: cofilin phosphorylation, HeLa cells; assay: Cofilin phosphorylation by Western Blot (anti-phospho-Ser3-cofilin) in HeLa cells; assay type: cell-based; details: Homo sapiens, 2 h
U2OS cells [3] = assay: Microtubule dynamics by visualizing mitotic spindles; assay type: cell-based; details: 2.5 μM, 24 hours
ROCK1 = ROCK1 (Homo sapiens (Human), UniProt Q13464); assay: Z'Lyte assay, ROCK1 inhibition at a single concentration; assay type: biochemical; details: read-out: % inhibition (ROCK1) 1 uM, 1 uM
Chain of ROCK1 (Q13464 whole entry): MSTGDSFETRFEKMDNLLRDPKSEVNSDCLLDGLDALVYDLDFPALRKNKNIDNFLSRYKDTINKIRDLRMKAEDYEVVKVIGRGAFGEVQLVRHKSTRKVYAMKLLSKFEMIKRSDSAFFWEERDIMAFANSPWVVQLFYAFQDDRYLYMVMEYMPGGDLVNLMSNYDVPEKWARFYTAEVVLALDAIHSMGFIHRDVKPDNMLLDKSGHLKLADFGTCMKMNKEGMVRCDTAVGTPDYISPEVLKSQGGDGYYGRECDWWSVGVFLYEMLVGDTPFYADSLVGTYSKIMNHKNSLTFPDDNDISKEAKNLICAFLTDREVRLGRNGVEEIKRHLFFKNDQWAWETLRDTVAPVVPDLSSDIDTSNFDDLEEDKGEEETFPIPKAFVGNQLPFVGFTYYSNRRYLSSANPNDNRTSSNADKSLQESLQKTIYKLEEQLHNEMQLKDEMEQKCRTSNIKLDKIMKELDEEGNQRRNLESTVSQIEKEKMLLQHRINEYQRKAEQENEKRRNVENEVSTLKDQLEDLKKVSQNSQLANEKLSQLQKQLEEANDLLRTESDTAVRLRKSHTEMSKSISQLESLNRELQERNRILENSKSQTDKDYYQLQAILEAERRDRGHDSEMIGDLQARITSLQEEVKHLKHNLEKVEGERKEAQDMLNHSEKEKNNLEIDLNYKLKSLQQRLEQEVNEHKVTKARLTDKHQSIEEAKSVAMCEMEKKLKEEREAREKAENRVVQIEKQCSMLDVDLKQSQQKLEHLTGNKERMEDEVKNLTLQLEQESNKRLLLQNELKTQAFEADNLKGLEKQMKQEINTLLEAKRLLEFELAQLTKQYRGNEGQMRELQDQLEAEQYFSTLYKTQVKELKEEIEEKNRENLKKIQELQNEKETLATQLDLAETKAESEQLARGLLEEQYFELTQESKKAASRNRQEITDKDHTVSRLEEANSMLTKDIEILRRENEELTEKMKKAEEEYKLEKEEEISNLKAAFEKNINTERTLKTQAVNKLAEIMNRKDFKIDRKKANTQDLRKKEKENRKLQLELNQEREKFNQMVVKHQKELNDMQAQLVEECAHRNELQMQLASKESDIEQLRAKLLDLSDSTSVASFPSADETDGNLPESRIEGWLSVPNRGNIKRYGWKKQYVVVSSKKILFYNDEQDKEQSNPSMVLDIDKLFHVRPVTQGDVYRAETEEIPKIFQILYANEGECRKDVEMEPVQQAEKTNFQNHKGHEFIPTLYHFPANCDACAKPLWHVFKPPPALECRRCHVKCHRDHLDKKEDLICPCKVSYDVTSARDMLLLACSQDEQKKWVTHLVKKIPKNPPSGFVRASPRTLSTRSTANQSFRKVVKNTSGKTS

[4] = test system: cofilin phosphorylation, MPNST90-8 cells; assay: Cofilin phosphorylation by Western Blot in MPNST90-8 cells; assay type: cell-based; details: read-out: % inhibition Cofilin phosphorylation MPNST90-8 cells treated 2 h with 25 uM of inhibitor, MPNST90-8 cells, 25 uM
LIMK1 = LIMK1 (Homo sapiens (Human), UniProt P53667); assay: Lanthascreen Eu binding assay (TR-FRET), inhibition of LIMK1; details: Lanthascreen Eu binding assay
Chain of LIMK1 (P53667 whole entry): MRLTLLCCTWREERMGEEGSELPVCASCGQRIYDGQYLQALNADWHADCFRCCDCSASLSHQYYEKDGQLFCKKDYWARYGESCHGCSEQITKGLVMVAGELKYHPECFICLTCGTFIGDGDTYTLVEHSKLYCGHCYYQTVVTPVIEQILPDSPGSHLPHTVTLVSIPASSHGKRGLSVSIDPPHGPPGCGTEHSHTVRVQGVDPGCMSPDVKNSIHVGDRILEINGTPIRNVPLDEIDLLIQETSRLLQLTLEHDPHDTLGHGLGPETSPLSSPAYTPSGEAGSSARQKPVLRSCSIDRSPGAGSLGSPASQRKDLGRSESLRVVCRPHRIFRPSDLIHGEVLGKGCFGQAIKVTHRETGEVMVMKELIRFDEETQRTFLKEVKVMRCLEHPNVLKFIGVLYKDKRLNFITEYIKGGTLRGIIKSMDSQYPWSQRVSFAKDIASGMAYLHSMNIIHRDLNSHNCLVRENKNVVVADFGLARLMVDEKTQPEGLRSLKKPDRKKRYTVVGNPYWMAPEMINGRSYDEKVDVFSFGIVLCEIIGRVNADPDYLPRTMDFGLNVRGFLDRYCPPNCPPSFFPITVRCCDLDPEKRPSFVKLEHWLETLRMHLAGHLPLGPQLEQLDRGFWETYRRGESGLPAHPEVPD

U2OS cells [5] = assay: Wound-healing migration assay; assay type: cell-based; details: 2.5 μM, 24 h
ROCK2 = ROCK2 (Homo sapiens (Human), UniProt O75116); assay: Z'Lyte assay, ROCK2 inhibition at a single concentration; assay type: biochemical; details: read-out: % inhibition (ROCK2) 1 uM, 1 uM
Chain of ROCK2 (O75116 whole entry): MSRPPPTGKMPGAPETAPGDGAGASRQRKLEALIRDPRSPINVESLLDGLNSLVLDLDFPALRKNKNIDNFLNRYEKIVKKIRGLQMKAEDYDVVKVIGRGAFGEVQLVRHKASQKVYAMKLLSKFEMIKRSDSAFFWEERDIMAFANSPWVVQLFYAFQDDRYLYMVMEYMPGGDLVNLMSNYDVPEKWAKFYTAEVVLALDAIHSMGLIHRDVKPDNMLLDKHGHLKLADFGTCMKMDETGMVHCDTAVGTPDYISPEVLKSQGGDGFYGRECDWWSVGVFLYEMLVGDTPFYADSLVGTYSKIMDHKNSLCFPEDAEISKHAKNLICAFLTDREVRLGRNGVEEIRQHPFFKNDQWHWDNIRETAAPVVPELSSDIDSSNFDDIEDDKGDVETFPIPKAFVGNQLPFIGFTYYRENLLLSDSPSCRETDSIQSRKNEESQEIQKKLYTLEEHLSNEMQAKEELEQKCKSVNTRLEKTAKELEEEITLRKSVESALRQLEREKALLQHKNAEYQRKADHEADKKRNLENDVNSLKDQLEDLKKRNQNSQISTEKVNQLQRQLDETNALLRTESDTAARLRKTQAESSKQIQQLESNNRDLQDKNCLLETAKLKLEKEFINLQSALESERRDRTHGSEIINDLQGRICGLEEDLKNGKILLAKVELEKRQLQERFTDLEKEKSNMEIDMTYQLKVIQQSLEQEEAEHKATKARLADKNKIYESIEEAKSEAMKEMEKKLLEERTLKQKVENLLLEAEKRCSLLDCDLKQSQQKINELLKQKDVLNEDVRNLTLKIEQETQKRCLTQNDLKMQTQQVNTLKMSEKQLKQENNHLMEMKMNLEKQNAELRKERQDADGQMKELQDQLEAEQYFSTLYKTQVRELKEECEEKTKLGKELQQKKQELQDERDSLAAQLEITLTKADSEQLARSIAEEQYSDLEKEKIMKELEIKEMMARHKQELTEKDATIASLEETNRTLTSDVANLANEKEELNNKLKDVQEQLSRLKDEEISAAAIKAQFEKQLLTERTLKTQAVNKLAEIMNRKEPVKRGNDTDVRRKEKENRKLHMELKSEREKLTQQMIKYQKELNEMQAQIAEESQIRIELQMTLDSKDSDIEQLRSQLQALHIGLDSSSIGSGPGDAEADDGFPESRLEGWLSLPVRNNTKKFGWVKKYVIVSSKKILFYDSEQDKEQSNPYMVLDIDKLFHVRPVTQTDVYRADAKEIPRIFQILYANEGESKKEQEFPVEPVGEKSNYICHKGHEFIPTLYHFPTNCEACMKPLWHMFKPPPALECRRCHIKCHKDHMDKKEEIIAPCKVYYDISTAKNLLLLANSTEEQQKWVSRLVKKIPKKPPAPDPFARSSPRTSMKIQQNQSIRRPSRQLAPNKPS

MPNST cell line = details: published data; cited from earlier work

Ki (LIMK2) [µM] | inhibition at 1 µM (ROCK1) [%] | Ki (LIMK1) [µM] | inhibition at 1 µM (ROCK2) [%] | Structure (SMILES) | inhibition at 25 µM [1] [%] | inhibition at 25 µM ([2]; HeLa, read-out: % inhibition of cofilin phosphorylation in HeLa cells (treatment 2 h, at 25 μM), Table 2, normalized to the control condition DMSO) [%] | inhibition at 25 µM ([2]; read-out: % inhibition Cofilin phosphorylation HeLa cells treated 2 h with 25 uM of inhibitor, HeLa cells, 25 uM) [%] | effects on microtubule dynamics (mitotic spindles) (U2OS cells [3]) | inhibition at 25 µM [4] [%] | inhibition of U2OS cell migration upon scratch (U2OS cells [5]) | EC50 (MPNST cell line) [µM]
0.0144 | 44 | 0.0194 | 24 | Cc1c[nH]c2ncnc(C3=CCN(C(=O)Nc4cccc(Oc5ccccc5)c4)CC3)c12 [Compound 15, 4-(5-Methyl-7H-pyrrolo[2,3-d]pyrimidin-4-yl)-N-(3-phenoxy-phenyl)-3,6-dihydropyridine-1(2H)-carboxamide] | 78.6 | 92.1 | 92.1 | strong effects on microtubule dynamics | 83.2 | particularly efficient | 
 |  |  |  | Cc1cc(C(=O)Nc2cccc(C(=O)Nc3cccc(C(F)(F)F)c3)c2)on1 [Compound T56-LIMKi] |  |  |  |  |  |  | ~20
